Assay results taken from patent publication US9713613B2, “Methods and compositions for the treatment of cancer and related hyperproliferative disorders” (priority 2007, dated 2017).

Tests used:
[1] = system: endogenous SREBPs; assay: Luciferase reporter assay (pSRE-Luc, normalized by β-gal) in HEK293 cells; assay type: cell-based, human; design: Luc/Gal: dose or concentration left out as unconfirmed
Procedure: On day 0, HEK293 cells were plated out in triplicate at a density of 5×10^3/well onto a 96-well plate in a Dulbecco's modified Eagle's medium with 10% fetal bovine serum, 100 units/mL penicillin, and 100 μg/mL streptomycin sulfate. On day 2, the cells were transiently co-transfected with the following plasmids by using Lipofectamine reagent (Invitrogen): 0.4 μg/well pSRE-Luc (an SRE-1-driven luciferase reporter construct; Hua et al., 1995 J Biol Chem 270, 29422-7), and 0.1 μg/well a b-gal reporter in which the expression of β-gal is controlled by an actin promoter in a final volume of […]. After incubation for 5 hrs at 37° C., the cells were washed with phosphate-buffered saline and then incubated in 100 μl of Dulbecco's modified Eagle's medium with 10% lipid-depleted serum, […] penicillin, and 100 μg/mL streptomycin sulfate in the absence or presence of fatostatin A. After 20 hrs of incubation, the cells in each well were lysed with 20 μL of 1× Reporter Lysis Buffer (Promega), and aliquots were used for measurement of luciferase (10 μL) and β-galactosidase (10 μL) activities. For luciferase assay, photon production was detected as counts per second in a Wallac 1420 ARVOsx multilabel counter (PerkinElmer). For β-galactosidase assays, hydrolysis of O-nitrophenyl-β-D-galactosidase was measured after incubation for 0.5 h at 37° C. by a microplate reader at the wave length of 405 nm (Tecan). The luciferase activity (counts per second) was normalized by the activity of β-galactosidase (OD units). For overexpression of the N-terminal matured form of SREBP-1c, pCMV-SREBP-1c (1-436) was co-transfected with pSRE-Luc. pSRE-Luc and pCMV-SREBP-1c (1-436) were provided by J. L. Goldstein (University of Texas Southwestern Medical Center). […]

[2] = system: 3T3-L1 cells; assay: adipogenesis assay (formation of oil droplets); assay type: cell-based, mouse; design: key: +: The analogues that completely inhibited the formation of oil droplets in cells were scored to be adipogenesis-inhibiting analogues; details: formation of oil droplets in cells
Procedure: The adipogenesis assay was performed as described (Choi et al., 2003).

[3] = system: endogenous SREBPs; assay: SREBP activation assay (pSRE-Luc luciferase reporter) in CHO-K1 cells; assay type: cell-based, Chinese hamster
Procedure: To confirm that fatostatin impairs the function of SREBPs, the ability of endogenous SREBPs to activate transcription of an SREBP-responsive reporter gene was measured in CHO-K1 cells in the presence or absence of fatostatin (FIG. 18A).
Luciferase reporter assay. On day 0, CHO-K1 cells were plated out onto a 96-well plate in medium A (a 1:1 mixture of Ham's F-12 medium and Dulbecco's modified Eagle's medium, with 5% fetal bovine serum, 100 units/mL penicillin, and 100 μg/mL streptomycin sulfate). On day 2, the cells were transiently co-transfected with pSRE-Luc (an SRE-1-driven luciferase reporter construct) (Hua et al., 1995) and pAc-β-gal (β-gal reporter in which the expression of β-gal is controlled by an actin promoter), using Lipofectamine reagent (Invitrogen). After incubation for 5 h, the cells were washed with phosphate-buffered saline (PBS), and then incubated, in the absence or presence of fatostatin, in medium B (a 1:1 mixture of Ham's F-12 medium and Dulbecco's modified Eagle's medium, with 5% lipid-depleted serum, 100 units/mL penicillin, 100 μg/mL streptomycin sulfate, […], and 50 mM sodium mevalonate). After 20 h of incubation, the cells in each well were lysed, and aliquots were used to measure luciferase and β-galactosidase activities. Luciferase activity was normalized by the activity of β-galactosidase. For overexpression of the N-terminal matured form of SREBP-1c, pCMV-SREBP-1c(1-436) was co-transfected with pSRE-Luc and pAc-β-gal.
Standard SREBP activation assays were performed on the exemplary compounds identified in Table 4 as per the method for Fatostatin A in Example 1. The ability of endogenous SREBPs to activate transcription of an SREBP-responsive reporter gene was measured in the presence or absence of compounds 45-55 and 19 (FIG. 28), compounds 56-61 and 19 (FIG. 29) and compounds 62-66 (FIG. 30) at 5 μM in CHOK1 cells. […] The inhibitory concentrations of compounds 53 (FIG. 31) and compounds 58 and 61 (FIG. 32) were determined.

[4] = entries 1, 19-34 (FIG. 16), None = 15.0759

Row | SMILES | activation of the SRE-controlled luciferase reporter gene by endogenous SREBPs ([1]; HEK293 cells, lipid-free serum, varied concentrations) | ability of exogenously expressed mature form of SREBP-1 to activate the reporter gene ([1]; HEK293 cells, pCMV-SREBP-1c + pSRE-Luc) | Luc/Gal [1, 4] | Luc/Gal ([1]; entries 1, 35-39 (FIG. 17), None = 18) | Luc/Gal ([1]; entries 1, 40-44 (FIG. 17), None = 8.2181) | Luc/Gal ([1]; entries 1-18 (FIG. 15), none = 9.4426) | Inhibition of adipogenesis [2] | activation of the SRE luciferase reporter gene by endogenous SREBPs ([3]; CHO-K1 cells, lipid-free serum) | inhibition at 5 µM ([3]; Cricetulus griseus, CHO-K1, 5 μM in CHOK1 cells)
1 | CCCc1cc(-c2nc(-c3ccc(C)cc3)cs2)ccn1 [Compound 1, 2-propyl-4-(4-p-tolylthiazol-2-yl)pyridine] | decreased in a concentration dependent manner | failed to impair | 7.5537 | 9.414 | 3.4437 | 6.2297 | + | decreased activation of the reporter gene | –
2 | CCCc1cc(-c2nc(-c3ccc(NS(C)(=O)=O)cc3)cs2)ccn1 [Compound 19, N-(4-(2-(2-propylpyridin-4-yl)thiazol-4-yl)phenyl)methanesulfonamide] | – | – | 4.1981 | – | – | – | + | – | ~45%
